Where two headings read alike, the source gives them in different places. One block for each compound: values may come before it.
Assays:
[1] = in vivo
[2] = cynomolgus monkey, in vivo
[3] = in vivo; remark: listed apart in the source
[4] = Metabolic stability (hepatocytes); assay type: in vitro ADME; conditions: human cryopreserved hepatocytes, well-stirred model
From the text: Hepatic clearance is expressed as mL/min/kg.

[5] = tested on: TNF/zVAD induced temperature loss; test: TNF-driven systemic inflammatory response syndrome model (TNF/zVAD); assay type: in vivo; conditions: mice, 5 mg/kg oral, 15 minutes before intravenous TNF/zVAD
From the text: The in vivo efficacy of compounds can be determined in mice using a TNF-driven systemic inflammatory response syndrome model as described by Duprez et. al. (2011, Immunity 35(6), 908-918) and Berger et. al. (2015, Cell Death Disc. 1, 15009). In this model system TNF/zVAD (tumor necrosis factor/Z-Val-Ala-DL-Asp-fluoromethylketone, a caspase inhibitor) treatment results in temperature loss and the production of several inflammatory cytokines. The ability of a test compound to inhibit these inflammatory effects can be measured in this model by dosing mice with test compound 15 minutes before administration of TNF/zVAD and measuring the inflammatory response. The dose required to inhibit the inflammatory response is a measure of the compounds efficacy at that dose. Using this model, Compound 42 was orally pre-dosed at 5 mg/kg 15 minutes before intraveneous administration of TNF/zVAD and temperature loss in the mice was measured by an implanted temperature chip. […] The decrease in dosing has a number of important potential advantages, including requiring less frequent administration to a patient, increased patient compliance, and improved safety profile such as lower toxicities while achieving similar efficacy.

[6] = tested on: FADD-deficient Jurkat cells; test: cellular necroptosis assay (human TNFα induced); assay type: cell-based; conditions: 48 h, human TNFα 10 ng/mL, viability after 48 h, CellTiter-Glo, read-out: Cell IC50
[7] = tested on: TNF/zVAD induced temperature loss; conditions: dose of 30 mg/kg, from WO 2014/125444 Table 2; cited from earlier work
[8] = male, Sprague-Dawley Crl:CD(SD)

- Dog unbound CL [1]: 64 mL/min/kg
- Cyno unbound CL [2]: 42 mL/min/kg
- Rat unbound CL [3]: 22 mL/min/kg
Compound: CN1C(=O)[C@@H](NC(=O)c2nc(Cc3ccccc3)n[nH]2)COc2cccnc21 [Example 42]

Compound: CN1C(=O)[C@@H](NC(=O)c2nnc(Cc3ccccc3)o2)COc2ccccc21 [B, reference compound]
- Human hepatocyte CLhep Avg [4]: 14 mL/min/kg

- Cyno unbound CL ([2]; male): 93 mL/min/kg
- Rat unbound CL [3, 8]: 91 mL/min/kg
- Human hepatocyte CLhep Avg [4]: 9.1 mL/min/kg
Compound: CN1C(=O)[C@@H](NC(=O)c2nnc(Cc3ccccc3)[nH]2)[C@H]2C[C@H]2c2cccnc21 [Example 75A, 5-benzyl-N-((1aS,2S,8bR)-4-methyl-3-oxo-1,1a,2,3,4,8b-hexahydrocyclopropa[d]pyrido[2,3-b]azepin-2-yl)-4H-1,2,4-triazole-3-carboxamide]

- Human hepatocyte CLhep Avg [4]: 0.8 mL/min/kg
Compound: CN1C(=O)[C@@H](NC(=O)c2nnc(Cc3ccccc3)[nH]2)COc2cccnc21 [Example 42, (S)-5-benzyl-N-(5-methyl-4-oxo-2,3,4,5-tetrahydropyrido[3,2-b][1,4]pxazepin-3-yl)-4H-1,2,4-triazole-3-carboxamide]
- inhibition of temperature loss [5]: 96%

- Cyno unbound CL [2]: 58 mL/min/kg
- Rat unbound CL [3]: 55 mL/min/kg
Compound: CN1C(=O)[C@@H](NC(=O)c2nnc(Cc3ccccc3)o2)[C@H]2C[C@H]2c2nccnc21 [Example 177A]

Compound: O=C(N[C@H]1COc2ccccc2-n2ccnc21)c1cc(Cc2ccccc2)on1 [Example 70A, (R)-5-benzyl-N-(4,5-dihydrobenzo[b]imidazo[1,2-d][1,4]oxazepin-4-yl)isoxazole-3-carboxamide]
- IC50 [6]: 0.1 to 1000 nM

- Cyno unbound CL ([2]; male): 39 mL/min/kg
- Rat unbound CL [3, 8]: 61 mL/min/kg
Compound: CN1C(=O)[C@@H](NC(=O)c2nnc(Cc3ccccc3)o2)COc2cccnc21 [Example 146, (S)-5-benzyl-N-(5-methyl-4-oxo-2,3,4,5-tetrahydropyrido[3,2-b][1,4]oxazepin-3-yl)-1,3,4-oxadiazole-2-carboxamide]

- Cyno unbound CL ([2]; male): 140 mL/min/kg
- Rat unbound CL [3, 8]: 100 mL/min/kg
Compound: C[C@H]1Oc2cccnc2N(C)C(=O)[C@H]1NC(=O)c1nnc(Cc2ccccc2)o1 [Example 134, 5-Benzyl-N-((2R,3S)-2,5-dimethyl-4-oxo-2,3,4,5-tetrahydropyrido[3,2-b][1,4]oxazepin-3-yl)-1,3,4-oxadiazole-2-carboxamide]

- Human hepatocyte CLhep Avg [4]: 19 mL/min/kg
Compound: CN1C(=O)[C@@H](NC(=O)c2cc(Cc3ccccc3)on2)COc2ccccc21 [C, reference compound]

- Human hepatocyte CLhep Avg [4]: 19 mL/min/kg
Compound: CN1C(=O)[C@@H](NC(=O)c2cc(C3(c4ccccc4)CC3)on2)COc2cccnc21 [Example 77, (S)-N-(5-methyl-4-oxo-2,3,4,5-tetrahydropyrido[3,2-b][1,4]oxazepin-3-yl)-5-(1-phenylchclopropyl)isoxazole-3-carboxamide]

- Rat unbound CL [3, 8]: 32 mL/min/kg
Compound: CN1C(=O)[C@@H](NC(=O)c2ncn(Cc3cccc(C#N)c3)n2)COc2cccnc21 [Example 171, (S)-1-(3-cyanobenzyl)-N-(5-methyl-4-oxo-2,3,4,5-tetrahydropyrido[3,2-b][1,4]oxazepin-3-yl)-1H-1,2,4-triazole-3-carboxamide]

- Rat unbound CL [3, 8]: 420 mL/min/kg
Compound: C[C@H]1Oc2cccnc2N(C)C(=O)[C@H]1NC(=O)c1nn(Cc2ccccc2)cc1F [Example 92, 1-benzyl-N-((2R,3S)-2,5-dimethyl-4-oxo-2,3,4,5-tetrahydropyrido[3,2-b][1,4]oxazepin-3-yl)-4-fluoro-1H-pyrazole-3-carboxamide]

- Dog unbound CL ([1]; male, Beagle): 36 mL/min/kg
- Human hepatocyte CLhep Avg [4]: 6.3 mL/min/kg
Compound: CN1C(=O)[C@@H](NC(=O)c2nnc(C3(c4ccccc4)CC3)o2)COc2cccnc21 [Example 66, (S)-N-(5-methyl-4-oxo-2,3,4,5-tetrahydropyrido[3,2-b][1,4]oxazepin-3-yl)-5-(1-phenylcyclopropyl)-1,3,4-oxadiazole-2-carboxamide]

- Rat unbound CL [3, 8]: 3700 mL/min/kg
Compound: CN1C(=O)[C@@H](NC(=O)c2cc(C3(c4ccccc4)CC3)on2)COc2ccccc21 [Example 8, (S)-N-(5-methyl-4-oxo-2,3,4,5-tetrahydrobenzo[b][1,4]oxazepin-3-yl)-5-(1-phenylcyclopropyl)isoxazole-3-carboxamide]

Compound: CN1C(=O)[C@@H](NC(=O)c2cn(Cc3ccccc3)nn2)[C@H]2C[C@H]2c2nccnc21 [Example 195, 1-benzyl-N-((7S,7aS,8aR)-5-methyl-6-oxo-5,6,7,7a,8,8a-hexahydrocyclopropa[d]pyrazino[2,3-b]azepin-7-yl)-1H-1,2,3-triazole-4-carboxamide]
- IC50 [6]: 16 nM

- Cyno unbound CL ([2]; male): 82 mL/min/kg
- Human hepatocyte CLhep Avg [4]: 1.0 mL/min/kg
Compound: O=C(N[C@@H]1C(=O)Nc2c(F)cc(F)cc2[C@@H]2C[C@H]12)c1nnc(Cc2ccccc2)[nH]1 [Example 83A, 5-benzyl-N-((1aS,2S,8bR)-5,7-difluoro-3-oxo-1,1a,2,3,4,8b-hexahydrobenzo[b]cyclopropa[d]azepin-2-yl)-4H-1,2,4-triazole-3-carboxamide]

- Dog unbound CL ([1]; male, Beagle): 240 mL/min/kg
- Rat unbound CL [3, 8]: 77 mL/min/kg
- Human hepatocyte CLhep Avg [4]: 6.8 mL/min/kg
Compound: CN1C(=O)[C@@H](NC(=O)c2nnc(Cc3ccccc3)[nH]2)COc2ccccc21 [A, reference compound]
- inhibition of temperature loss [7]: 93%

- Rat unbound CL [3]: 65 mL/min/kg
Compound: C[C@H]1Oc2cccnc2N(C)C(=O)[C@H]1NC(=O)c1ncn(Cc2cccc(C#N)c2)n1 [Example 172]

- Cyno unbound CL ([2]; male): 40 mL/min/kg
- Rat unbound CL [3, 8]: 44 mL/min/kg
Compound: C[C@H]1Oc2cccnc2N(C)C(=O)[C@H]1NC(=O)c1nnc(Cc2ccccc2)[nH]1 [Example 94, 5-benzyl-N-((2R,3S)-2,5-dimethyl-4-oxo-2,3,4,5-tetrahydropyrido[3,2-b][1,4]oxazepin-3-yl)-4H-1,2,4-triazole-3-carboxamide]

Source: patent US9896458B2, “Compounds, compositions and methods” (Denali Therapeutics Inc., priority 0216, dated 2018)
